Common to all, as to type: cell-based
The subject of one data set is CWR22RV1 cells. The data set can be described thus: Cytotoxicity assay (AlamarBlue, 72 hours). Particulars: 72 hours treatment, concentration not given. The method, then:
(§1) Compound stock solutions of 10 mM were prepared with 100% DMSO and shaken for 10-15 seconds. The compound stock solutions were centrifuged at 12000 rpm (13523 rcf.) for 5 minutes and record the turbidity or precipitation state with a photo snapshot. The compound stock solutions were resuspended by shaking for 10-15 seconds, and serially diluted with 100% DMSO solution to make the compound concentration to 1000 μM, then to 100, 10, and 1 μM, and then 10-fold diluted with medium to 100, 10, 1, 0.1 μM (final 10% DMSO/medium) to complete compound test sample preparation. Compound treatment was performed by adding 10 μL of compound test sample to cells in each well of a 96-well plate (final 1% DMSO/medium).
(§2) Cells (CWR22Rv1 cells or VCaP cells) were cultured in RPMI-1640 medium supplemented with 10% fetal bovine serum, 10,000 U/mL penicillin and 10,000 μg/mL streptomycin. Cells were cultured at 37° C. in a humidified 5% CO2 incubator.
(§3) Cells were seeded in a 96-well plate (1×10^4 cells/well). 10 μL of the above compound test sample was added to each well of the 96-well plate on next day. After 72 hours of compound treatment, 10 μL of AlamaBlue reagent was added to each of 96 wells and incubated for 4 hours. The fluorescence value at Ex/Em=560/590 nm was read with a microplate reader, and the cytotoxicity (%) was calculated.
(§4) According to the above method, the compounds prepared above were subjected to cytotoxicity test with CWR22RV1 cells and VCaP cells.
(Resazurin is reduced to fluorescent resorufin, in cell work by metabolically active cells.)

A further data set has as its system VCaP cells. The data set can be described thus: Cytotoxicity assay (AlamarBlue, 72 hours). The following applies: 72 hours treatment, concentration not given. The method, then: as §1, §2, §3, §4
In data set [1] the test system is full-length androgen receptor. The data set can be described thus: Western blot: degradation of full-length androgen receptor in CWR22RV1 cells. Particulars: overnight. The method, then: CWR22Rv1 cells were maintained in RPMI medium supplemented with 10% fetal bovine serum and 1% penicillin-streptomycin at 37° C. in a humidified environment with 5% CO2.
CWR22Rv1 (5×10^5 cells) were seeded in each well of a 6-well plate and incubated overnight. Before compound treatment, the medium in the wells was replaced with a new medium. Cells were treated with different concentrations of compound overnight. Subsequently, cells were harvested by adding cold PBS and scraping cells. Cells were lysed according to general procedures and Western blot assays were performed to assess the ability of compounds to degrade full-length androgen receptor or androgen receptor splice variant 7. The cells or cell lysates were kept on ice at all times.
The following reagents were used in this experiment. Phosphate buffered saline (PBS) (Hyclone, SH30028.02), fetal bovine serum (Hyclone, SH30084.23, Lot AC14563276), penicillin-streptomycin solution (Hyclone, SV30010), 0.5% Trypsin-EDTA (Gibco, 15400-054), CST Lysis Buffer (CST-9803), Halt™ Protease and Phosphatase Inhibitor (ThermoFisher, 78442), Coomassie (Bradford) Protein Assay (Coomassie (Bradford) protein assay) (ThermoFisher, 23200), androgen receptor antibody (Cell Siginaling, CST-5153S), GAPDH antibody (Cell Siginaling, CST-5174S), HRP-goat-anti-rabbit (Jackson Immuno Research, 111-035-003), skim milk, SuperSignal West Pico Maximum Sensitivity substrate (ThermoFisher, 34080).
The compound prepared above was analyzed for its ability to degrade full-length androgen receptor and androgen receptor splice variant 7 in CWR22RV1 cells by Western blotting according to the method shown in item B.3-2 above.

Where [2] appears, read: compound concentration 0.1 (unit not given).
Where [3] appears, read: compound concentration 1 (unit not given).
[4] abbreviates: compound concentration 10 (unit not given).

In the case of `Cc1cc([C@H](C(=O)N2C[C@H](O)C[C@H]2C(=O)N[C@@H](CC(=O)N2CCC(N3CCC(C#Cc4ccc(C5CCN(C6=Nn7c(nnc7C(F)(F)F)CC6)CC5)cc4)CC3)CC2)c2ccc(-c3scnc3C)cc2)C(C)C)on1` [Compound 9, (2S,4R)-4-hydroxy-1-((R)-3-methyl-2-(3-methylisoxazol-5-yl)butanoyl)-N—((S)-1-(4-(4-methylthiazol-5-yl)phenyl)-3-oxo-3-(4-((4-(1-(3-(trifluoromethyl)-7,8-dihydro-[1,2,4]triazolo[4,3-b]pyridazin-6-yl)piperidin-4-yl)phenyl)ethynyl)-[1,4′-bipiperidin]-1′-yl)propyl)pyrrolidine-2-carboxamide], the “Cytotoxicity, CWR22RV1 cells (cell viability %)” value in the data set with CWR22RV1 cells was “++ (40-60% : ++)”. The “Cytotoxicity, VCaP cells (cell viability %)” value in the data set with VCaP cells is “+++ (<40% : +++)”. The entries for the “Degradation ability for full-length androgen receptor (residual rate %)” value (“Degradation ability … (residual rate %)” for short) in data set [1] (setting [2]), in data set [1] (setting [3]) and in data set [1] (setting [4]) were “+ (60-80%: +)”, “+++ (<40%: +++)” and “+ (60-80%: +)”, respectively.
Regarding `Cc1cc([C@H](C(=O)N2C[C@H](O)C[C@H]2C(=O)N[C@@H](CC(=O)N2CCC(C#Cc3ccc(C4CCN(C5=Nn6c(nnc6C(F)(F)F)CC5)CC4)cc3)CC2)c2ccc(-c3scnc3C)cc2)C(C)C)on1` [Compound 14, (2S,4R)-4-hydroxy-1-((R)-3-methyl-2-(3-methylisoxazol-5-yl)butanoyl)-N—((S)-1-(4-(4-methylthiazol-5-yl)phenyl)-3-oxo-3-(4-((4-(1-(3-(trifluoromethyl)-7,8-dihydro-[1,2,4]triazolo[4,3-b]pyridazin-6-yl)piperidin-4-yl)phenyl)ethynyl)piperidin-1-yl)propyl)pyrrolidine-2-carboxamide], the “Cytotoxicity, CWR22RV1 cells (cell viability %)” value in the data set on CWR22RV1 cells is “+++ (<40% : +++)”. Besides, the “Cytotoxicity, VCaP cells (cell viability %)” value with VCaP cells is recorded as “+++ (<40% : +++)”. In addition, the “Degradation ability … (residual rate %)” value in data set [1] (setting [2]) is listed as “− (>80%; −)”; in data set [1] (setting [3]), “− (>80%; −)”; in data set [1] (setting [4]), “+++ (<40%: +++)”.
With `Cc1ncsc1-c1ccc(CNC(=O)[C@@H]2C[C@H](O)CN2C(=O)[C@@H](NC(=O)COCCOc2ccc(C3CCN(C4=Nn5c(nnc5C(F)(F)F)CC4)CC3)cc2)C(C)(C)C)cc1` [Compound 19, (2S,4S)-1-((S)-3,3-dimethyl-2-(2-(2-(4-(1-(3-(trifluoromethyl)-7,8-dihydro-[1,2,4]triazolo[4,3-b]pyridazin-6-yl)piperidin-4-yl)phenoxy)ethoxy)acetamido)butanoyl)-4-hydroxy-N-(4-(4-methylthiazol-5-yl)benzyl)pyrrolidine-2-carboxamide], in the data set with CWR22RV1 cells, the “Cytotoxicity, CWR22RV1 cells (cell viability %)” value was “− (<80% : −)”. Moreover, in the data set on VCaP cells, the “Cytotoxicity, VCaP cells (cell viability %)” value is “− (<80% : −)”. In addition, the “Degradation ability … (residual rate %)” value in data set [1] (setting [2]), in data set [1] (setting [3]) and in data set [1] (setting [4]) was “− (>80%; −)” throughout.
With `Cc1ncsc1-c1ccc(CNC(=O)[C@@H]2C[C@H](O)CN2C(=O)[C@@H](NC(=O)COCCCCCOc2ccc(C3CCN(C4=Nn5c(nnc5C(F)(F)F)CC4)CC3)cc2)C(C)(C)C)cc1` [Compound 21], the “Cytotoxicity, CWR22RV1 cells (cell viability %)” value with CWR22RV1 cells was “+++ (<40% : +++)”. Besides, the “Cytotoxicity, VCaP cells (cell viability %)” value in the data set on VCaP cells was “+ (60-80% : +)”. Further, the “Degradation ability … (residual rate %)” value in data set [1] (setting [2]) is recorded as “− (>80%; −)”; in data set [1] (setting [3]) it was “− (>80%; −)”; in data set [1] (setting [4]) it was “+++ (<40%: +++)”.
In the case of `Cc1ncsc1-c1ccc(CNC(=O)[C@@H]2C[C@H](O)CN2C(=O)[C@@H](NC(=O)COCCCCCCOc2ccc(C3CCN(C4=Nn5c(nnc5C(F)(F)F)CC4)CC3)cc2)C(C)(C)C)cc1` [Compound 22], the “Cytotoxicity, CWR22RV1 cells (cell viability %)” value in the data set with CWR22RV1 cells is reported as “+++ (<40% : +++)”. Moreover, in the data set on VCaP cells, the “Cytotoxicity, VCaP cells (cell viability %)” value was “+++ (<40% : +++)”. The results for the “Degradation ability … (residual rate %)” value in data set [1] (setting [2]), in data set [1] (setting [3]) and in data set [1] (setting [4]) were “++ (40-60%: ++)”, “+++ (<40%: +++)” and “+++ (<40%: +++)”, respectively.
For the compound `Cc1ncsc1-c1ccc(CNC(=O)[C@@H]2C[C@H](O)CN2C(=O)[C@@H](NC(=O)COCCCCCCCOc2ccc(C3CCN(C4=Nn5c(nnc5C(F)(F)F)CC4)CC3)cc2)C(C)(C)C)cc1` [Compound 23, (2S,4S)-1-((S)-3,3-dimethyl-2-(2-((7-(4-(1-(3-(trifluoromethyl)-7,8-dihydro-[1,2,4]triazolo[4,3-b]pyridazin-6-yl)piperidin-4-yl)phenoxy)heptyl)oxy)acetamido)butanoyl)-4-hydroxy-N-(4-(4-methylthiazol-5-yl)benzyl)pyrrolidine-2-carboxamide], the “Cytotoxicity, CWR22RV1 cells (cell viability %)” value in the data set on CWR22RV1 cells is reported as “+++ (<40% : +++)”. In addition, the “Cytotoxicity, VCaP cells (cell viability %)” value in the data set with VCaP cells is recorded as “+++ (<40% : +++)”.
`O=C1CCC(N2Cc3c(C#CCCCCOc4ccc(C5CCN(C6=Nn7c(nnc7C(F)(F)F)CC6)CC5)cc4)cccc3C2=O)C(=O)N1` (centres unmarked) [Compound 31, 3-(1-oxo-4-(6-(4-(1-(3-(trifluoromethyl)-7,8-dihydro-[1,2,4]triazolo[4,3-b]pyridazin-6-yl)piperidin-4-yl)phenoxy)hex-1-ynyl)isoindolin-2-yl)piperidine-2,6-dione]: the “Cytotoxicity, CWR22RV1 cells (cell viability %)” value in the data set on CWR22RV1 cells is recorded as “+ (60-80% : +)”. The “Cytotoxicity, VCaP cells (cell viability %)” value in the data set with VCaP cells is on record as “+ (60-80% : +)”.
As for `O=C1CCC(N2Cc3c(NC(=O)COCCCCCCOc4ccc(C5CCN(C6=Nn7c(nnc7C(F)(F)F)CC6)CC5)cc4)cccc3C2=O)C(=O)N1` (centres unmarked) [Compound 32, N-(2-(2,6-dioxopiperidin-3-yl)-1-oxoisoindolin-4-yl)-2-((6-(4-(1-(3-(trifluoromethyl)-7,8-dihydro-[1,2,4]triazolo[4,3-b]pyridazin-6-yl)piperidin-4-yl)phenoxy)hexyl)oxy)acetamide], the “Cytotoxicity, CWR22RV1 cells (cell viability %)” value in the data set on CWR22RV1 cells is recorded as “+ (60-80% : +)”. In the data set on VCaP cells, the “Cytotoxicity, VCaP cells (cell viability %)” value is “++ (40-60% : ++)”.
Taken in the same sequence, the figures for `Cc1ncsc1-c1ccc(CNC(=O)[C@@H]2C[C@H](O)CN2C(=O)[C@@H](NC(=O)c2ccc(C(=O)N3CCC(C#Cc4ccc(C5CCN(C6=Nn7c(nnc7C(F)(F)F)CC6)CC5)cc4)CC3)cc2)C(C)(C)C)cc1` [Compound 33, 1-(3,3-dimethyl-2-(4-(4-((4-(1-(3-(trifluoromethyl)-7,8-dihydro-[1,2,4]triazolo[4,3-b]pyridazin-6-yl)piperidin-4-yl)phenyl)ethynyl)piperidine-1-carbonyl)benzamido)butanoyl)-4-hydroxy-N-(4-(4-methylthiazol-5-yl)benzyl)pyrrolidine-2-carboxamide] were “− (<80% : −)” and “+++ (<40% : +++)”.
The corresponding values for `Cc1ncsc1-c1ccc(CNC(=O)[C@@H]2C[C@H](O)CN2C(=O)[C@@H](NC(=O)COCCCCOc2ccc(C3CCN(C4=Nn5c(nnc5C(F)(F)F)CC4)CC3)cc2)C(C)(C)C)c(O)c1` [Compound 35, (2S,4S)-1-((S)-3,3-dimethyl-2-(2-(4-(4-(1-(3-(trifluoromethyl)-7,8-dihydro-[1,2,4]triazolo[4,3-b]pyridazin-6-yl)piperidin-4-yl)phenoxy)butoxy)acetamido)butanoyl)-4-hydroxy-N-(2-hydroxy-4-(4-methylthiazol-5-yl)benzyl)pyrrolidine-2-carboxamide] are “+++ (<40% : +++)” and “+++ (<40% : +++)”.

For the origin of these results see US12152035B2, “Androgen receptor binding molecule and use thereof” (Industrial Technology Research Institute, priority 2020, dated 2024).
